Values quoted from earlier work as cited in PMC5962642, “Dynamic imaging of adaptive stress response pathway activation for prediction of drug induced liver injury” (Archives of Toxicology, 2018).

Key:
[1] = ref Chen et al. [2016], cited from earlier work; for DILI con. (DILI-concern labeling): FDA DILI labeling; for Hepa. (hepatotoxicity class): FDA labeling in eight classes of hepatotoxicity
[2] = C-max obtained from FDA or literature; ref per compound (FDA, Dailymed, Xu, O’Brien, Khetani, Regenthal, Gustafsson, Dawson, Ogutu, Patel, Schmidt, Ravic, Keisu, Hu, Wagner); cited from earlier work

CN(C)c1nc(N(C)C)nc(N(C)C)n1 [Altretamine]
DILI con. (DILI-concern labeling) [1]: Amb.-DC
Cmax [2]: 3760 nM

CC1(C)S[C@@H]2[C@H](NC(=O)[C@H](N)c3ccc(O)cc3)C(=O)N2[C@H]1C(=O)O [Amoxicillin]
DILI con. (DILI-concern labeling) [1]: Less-DC
Hepa. (hepatotoxicity class) [1]: 5
Cmax [2]: 22300 nM

O=C1CC2(CCCC2)CC(=O)N1CCCCN1CCN(c2ncccn2)CC1 [Buspirone]
DILI con. (DILI-concern labeling) [1]: Amb.-DC
Cmax [2]: 16 nM

CS(=O)(=O)OCCCCOS(C)(=O)=O [Busulfan]
DILI con. (DILI-concern labeling) [1]: Most-DC
Hepa. (hepatotoxicity class) [1]: 8
Cmax [2]: 277 nM

C[C@H](CS)C(=O)N1CCC[C@H]1C(=O)O [Captopril]
Hepa. (hepatotoxicity class) [1]: 7
Cmax [2]: 8880 nM

NC(=O)N1c2ccccc2C=Cc2ccccc21 [Carbamazepine]
DILI con. (DILI-concern labeling) [1]: Most-DC
Hepa. (hepatotoxicity class) [1]: 7
Cmax [2]: 50800 nM

O=C(N[C@H](CO)[C@H](O)c1ccc([N+](=O)[O-])cc1)C(Cl)Cl [Chloramphenicol]
Cmax [2]: 46400 nM

CCCNC(=O)NS(=O)(=O)c1ccc(Cl)cc1 [Chlorpropamide]
DILI con. (DILI-concern labeling) [1]: Less-DC
Hepa. (hepatotoxicity class) [1]: 2
Cmax [2]: 130000 nM

Clc1ccccc1C(c1ccccc1)(c1ccccc1)n1ccnc1 [Clotrimazole]
DILI con. (DILI-concern labeling) [1]: Less-DC
Hepa. (hepatotoxicity class) [1]: 3
Cmax [2]: 87 nM

CN(C)/N=N/c1[nH]cnc1C(N)=O [Dacarbazine]
DILI con. (DILI-concern labeling) [1]: Most-DC
Hepa. (hepatotoxicity class) [1]: 6
Cmax [2]: 20600 nM

C#C[C@]1(O)CC[C@H]2[C@@H]3CCC4=Cc5oncc5C[C@]4(C)[C@H]3CC[C@@]21C [Danazol]
Hepa. (hepatotoxicity class) [1]: 8
Cmax [2]: 109 nM

C[C@@H]1C[C@H]2[C@@H]3CCC4=CC(=O)C=C[C@]4(C)[C@@]3(F)[C@@H](O)C[C@]2(C)[C@@]1(O)C(=O)CO [Dexamethasone]
DILI con. (DILI-concern labeling) [1]: Amb.-DC
Hepa. (hepatotoxicity class) [1]: 3
Cmax [2]: 224 nM

O=c1[nH]cnc2c1ncn2[C@H]1CC[C@@H](CO)O1 [Didanosine]
Hepa. (hepatotoxicity class) [1]: 8
Cmax [2]: 9830 nM

C[C@H]1O[C@@H](O[C@H]2[C@@H](O)C[C@H](O[C@H]3[C@@H](O)C[C@H](O[C@H]4CC[C@@]5(C)[C@H](CC[C@@H]6[C@@H]5C[C@@H](O)[C@]5(C)[C@@H](C7=CC(=O)OC7)CC[C@]65O)C4)O[C@@H]3C)O[C@@H]2C)C[C@H](O)[C@@H]1O [Digoxin]
Hepa. (hepatotoxicity class) [1]: 1
Cmax [2]: 3 nM

COc1ccc([C@@H]2Sc3ccccc3N(CCN(C)C)C(=O)[C@@H]2OC(C)=O)cc1 [Diltiazem]
Cmax [2]: 356 nM

CCN(CC)C(=S)SSC(=S)N(CC)CC [Disulfiram]
Cmax [2]: 5400 nM

CNC[C@H](O)c1ccc(O)c(O)c1 [Epinephrine]
DILI con. (DILI-concern labeling) [1]: No-DC
Hepa. (hepatotoxicity class) [1]: 1
Cmax [2]: 2 nM

CC[C@H]1OC(=O)[C@H](C)[C@@H](O[C@H]2C[C@@](C)(OC)[C@@H](O)[C@H](C)O2)[C@H](C)[C@@H](O[C@@H]2O[C@H](C)C[C@H](N(C)C)[C@H]2O)[C@](C)(O)C[C@@H](C)C(=O)[C@H](C)[C@@H](O)[C@]1(C)O [Erythromycin]
Cmax [2]: 11000 nM

CC[C@@H](CO)NCCN[C@@H](CC)CO [Ethambutol]
DILI con. (DILI-concern labeling) [1]: Most-DC
Hepa. (hepatotoxicity class) [1]: 8
Cmax [2]: 24500 nM

CCc1cccc2c3c([nH]c12)C(CC)(CC(=O)O)OCC3 (stereo not drawn) [Etodolac]
DILI con. (DILI-concern labeling) [1]: Most-DC
Hepa. (hepatotoxicity class) [1]: 8
Cmax [2]: 68500 nM

CC(C)OC(=O)C(C)(C)Oc1ccc(C(=O)c2ccc(Cl)cc2)cc1 [Fenofibrate]
Hepa. (hepatotoxicity class) [1]: 3
Cmax [2]: 4100 nM

O=c1[nH]c(=O)n([C@@H]2O[C@H](CO)[C@@H](O)[C@@H]2F)cc1I [Fialuridine]
DILI con. (DILI-concern labeling) [1]: Most-DC
Hepa. (hepatotoxicity class) [1]: 8
Cmax [2]: 1000 nM

CNCCC(Oc1ccc(C(F)(F)F)cc1)c1ccccc1 (stereo not drawn) [Fluoxetine]
Hepa. (hepatotoxicity class) [1]: 3

Nc1nc2ncc(CNc3ccc(C(=O)N[C@@H](CCC(=O)O)C(=O)O)cc3)nc2c(=O)[nH]1 [Folic acid]
Hepa. (hepatotoxicity class) [1]: 1
Cmax [2]: 43 nM

Nc1nc(O)c2ncn(COC(CO)CO)c2n1 [Ganciclovir]
Hepa. (hepatotoxicity class) [1]: 7
Cmax [2]: 4620 nM

CCC1=C(C)CN(C(=O)NCCc2ccc(S(=O)(=O)NC(=O)N[C@H]3CC[C@H](C)CC3)cc2)C1=O [Glimepiride]
DILI con. (DILI-concern labeling) [1]: Less-DC
Hepa. (hepatotoxicity class) [1]: 7
Cmax [2]: 1120 nM

OCCOCCN1CCN(C(c2ccccc2)c2ccc(Cl)cc2)CC1 (stereo not drawn) [Hydroxyzine]
DILI con. (DILI-concern labeling) [1]: No-DC
Hepa. (hepatotoxicity class) [1]: 1
Cmax [2]: 270 nM

COc1ccc2c(c1)c(CC(=O)O)c(C)n2C(=O)c1ccc(Cl)cc1 [Indomethacin]
Cmax [2]: 5590 nM

CC(C)NCC(O)c1ccc(O)c(O)c1 (stereo not drawn) [Isoproterenol]
DILI con. (DILI-concern labeling) [1]: No-DC
Hepa. (hepatotoxicity class) [1]: 1
Cmax [2]: 2020 nM

O=C(c1ccccc1)c1ccc2n1CCC2C(=O)O (stereo not drawn) [Ketorolac]
DILI con. (DILI-concern labeling) [1]: Less-DC
Hepa. (hepatotoxicity class) [1]: 3
Cmax [2]: 3530 nM

CC(CCc1ccccc1)NCC(O)c1ccc(O)c(C(N)=O)c1 (stereo not drawn) [Labetalol]
DILI con. (DILI-concern labeling) [1]: Most-DC
Hepa. (hepatotoxicity class) [1]: 8
Cmax [2]: 2680 nM

CNCCCC12CCC(c3ccccc31)c1ccccc12 [Maprotiline]
DILI con. (DILI-concern labeling) [1]: Amb.-DC
Hepa. (hepatotoxicity class) [1]: 5
Cmax [2]: 180 nM

COC(=O)Nc1nc2ccc(C(=O)c3ccccc3)cc2[nH]1 [Mebendazole]
Hepa. (hepatotoxicity class) [1]: 3
Cmax [2]: 130 nM

Cc1cccc(CN2CCN(C(c3ccccc3)c3ccc(Cl)cc3)CC2)c1 (stereo not drawn) [Meclizine]
DILI con. (DILI-concern labeling) [1]: No-DC
Hepa. (hepatotoxicity class) [1]: 1

Cn1cc[nH]c1=S [Methimazole]
Cmax [2]: 2620 nM

CN(Cc1cnc2nc(N)nc(N)c2n1)c1ccc(C(=O)N[C@@H](CCC(=O)O)C(=O)O)cc1 [Methotrexate]
DILI con. (DILI-concern labeling) [1]: Most-DC
Hepa. (hepatotoxicity class) [1]: 3
Cmax [2]: 770 nM

COCCc1ccc(OCC(O)CNC(C)C)cc1 (stereo not drawn) [Metoprolol]
Cmax [2]: 560 nM

CC(=O)Oc1cc(C(C)C)c(OCCN(C)C)cc1C [Moxisylyte]
Hepa. (hepatotoxicity class) [1]: 8
Cmax [2]: 160 nM

CC1COc2c(N3CCN(C)CC3)c(F)cc3c(=O)c(C(=O)O)cn1c23 (stereo not drawn) [Ofloxacin]
Hepa. (hepatotoxicity class) [1]: 3
Cmax [2]: 9960 nM

C1CCC(C(CC2CCCCN2)C2CCCCC2)CC1 (stereo not drawn) [Perhexiline]
DILI con. (DILI-concern labeling) [1]: Most-DC
Hepa. (hepatotoxicity class) [1]: 8

C[C@]12C=CC(=O)C=C1CC[C@@H]1[C@@H]2[C@@H](O)C[C@@]2(C)[C@H]1CC[C@]2(O)C(=O)CO [Prednisolone]
DILI con. (DILI-concern labeling) [1]: Less-DC
Hepa. (hepatotoxicity class) [1]: 3
Cmax [2]: 680 nM

CCCc1cc(=O)[nH]c(=S)[nH]1 [Propylthiouracil]
Hepa. (hepatotoxicity class) [1]: 8
Cmax [2]: 9100 nM

Clc1ccccc1CN1CCc2sccc2C1 [Ticlopidine]
Cmax [2]: 8070 nM

CCCCNC(=O)NS(=O)(=O)c1ccc(C)cc1 [Tolbutamide]
Cmax [2]: 233000 nM

CC(=O)CC(c1ccccc1)c1c(O)c2ccccc2oc1=O (stereo not drawn) [Warfarin]
Cmax [2]: 4860 nM

CCOC(=O)CN[C@@H](C(=O)N1CC[C@H]1C(=O)NCc1ccc(/C(N)=N\O)cc1)C1CCCCC1 [Ximelagatran]
Cmax [2]: 300 nM
